Measured values: patent US20260294906A1, “TREATING PSORIASIS USING A SMALL MOLECULE INHIBITOR OF TUMOR NECROSIS FACTOR ALPHA” (SANOFI, priority 2023, published 2026)
“And” between values parts separate entries of the source, which are not always exact repeats. Equal entries are not always repeated. “Also recorded” adds a separate entry of the source.

Legend:
[1] = test system: patients with mild to moderate psoriasis; assay: Clinical response by Target Lesion Severity (TLS) score, phase 1 placebo-controlled study; assay type: in vivo, human; conditions: for Mean (±SEM) % improvement from baseline in TLS score / ΔLSm (±SE) (Compound 1 minus placebo) in % improvement from baseline in TLS score: 200 mg BID; for LSm (±SE) % improvement from baseline in TLS score: 200 mg BID oral, fed, average of 2 lesions; for LSm (±SE) % improvement from baseline in TLS score / ΔLSm (±SE) (Compound 1 minus placebo) in % improvement from baseline in TLS score: MMRM
Protocol: A double-blind, randomized, placebo-controlled phase 1 study was carried out in participants with mild to moderate psoriasis. Study participants were randomized to 200 mg twice a day (BID) of Compound 1 or placebo in 2:1 ratio (approximately 24 in the treatment group and 12 in the placebo group). The study comprised an up to 4-week screening period, and a 4-week treatment period with Compound 1 or placebo. An end-of-study visit was carried out 10±3 days after the last investigational medicinal product (IMP) administration.
The primary objective of the study was to assess the safety, tolerability, and clinical efficacy of Compound 1 at 200 mg BID via oral administration. Also evaluated was the clinical effect of Compound 1 as compared to placebo on the percent change in PASI and TLS scores from baseline to week 2 and week 4. The percent change in PASI score from baseline to week 4 was determined. TLS score was also assessed over the same time period. Also assessed was the effect of Compound 1 on biomarkers of psoriasis. Blood samples collected at predetermined time points were processed to quantify serum levels of biomarkers, including interleukin (IL)-17A, IL-17F, and IL-22 by high sensitivity methods. IL-17A, IL-17F and IL-22 are the main cytokines released by Th17 cells. Plasma levels of Compound 1 were measured to assess pharmacokinetics in the study population.
(§1) Two study interventions were used, Compound 1 and placebo. The Compound 1 intervention comprised 4× tablets of Compound 1 50 mg twice daily, i.e. 200 mg BID, for 4 weeks. The placebo intervention was 4× tablets of placebo twice daily for 4 weeks. Tablets were administered orally.
The interventions were used in two arms of the study. Arm 1 was the experimental arm and it involved participants receiving 200 mg of Compound BID for 4 weeks under fed conditions. Arm 2 was the placebo arm and it involved participants receiving the matching placebo tablets for 4 weeks under fed conditions.
TLS score, which is a validated tool for psoriasis severity assessment, was used to evaluate severity and to assess clinical efficacy. It consists of a sum score of 3 clinical severity parameters (scaling, erythema, plaque elevation/induration; each graded on a 5-point severity scale; 0=clear, 1=slight, 2=mild, 3=moderate, and 4=severe) with a sum score ranging between 0 and 12 points (see, e.g., Czamowicki et al., J Am Acad Dermatol. (2014) 71(5):954-959.e1). The following assessment was used, in which TLS score was calculated as the sum of A+B+C (adapted from Fredriksson et al., Dermatologica (1978) 157(4):238-244):
The TLS score was assessed at baseline, 2 weeks and 4 weeks. Table 2 below presents the Least Square means (LSm)±Standard Error (SE) for each treatment and the Least Squares means difference (ΔLSm; Compound 1 minus placebo)±Standard Error (SE) with 90% confidence interval (CI) in percentage improvement from baseline in the TLS score (calculated as the average of the TLS score values collected from 2 lesions) at week 2 and week 4.
The results in Table 2 were obtained using the Mixed Model for Repeated Measures (MMRM).
Table 3 below presents the mean (±SEM) percentage improvement from baseline in the TLS score (calculated as the average of the TLS score values collected from 2 lesions) at week 2 and week 4 in the patient population with PASI<10 (mild) or PASI≥10 (moderate) at baseline.
The results in Table 3 come from standard descriptive analysis, ^(1)N=3, ^(2)N=15

[2] = test system: participants with mild to moderate psoriasis; assay: 12-lead ECG (QTcF) in the clinical study; assay type: in vivo, human
Protocol: as §1
The following electrocardiogram data were recorded: • Standard 12-lead ECGs (safety ECGs) were recorded after at least 10 minutes in supine position using an electrocardiographic device. The electrodes were positioned at the same place for each ECG recording throughout the study (e.g., attachment sites of the leads were visualized on a transparent paper). • Triplicate ECGs were recorded within 5 minutes with at least 1 min between 2 replicates for all ECG. • Each ECG consisted of a 10-second recording of the 12 leads simultaneously, leading to: • A single 12-lead ECG (50 mm/s, 10 mm/mV) printout with heart rate, PR, QRS, QT, QTc automatic correction evaluation (by the ECG device), including date, time, and number of the participant, signature of the research physician, and at least 3 complexes for each lead. The Investigator's medical opinion and automatic values were recorded in the eCRF. This printout was retained at the site. A second printout was performed also, if needed. • A digital storage that enables eventual further reading by an ECG central laboratory: each digital file will be identified by theoretical time (day and time Dxx Txx Hxx), real date and real time (recorder time), Sponsor study code, participant number (i.e., 3 digits), and site and country numbers, if relevant. The digital recording, data storage, and transmission (whenever requested) need to comply with all applicable regulatory requirements (i.e., FDA 21 code of federal regulations [CFR], Part 11).
For AESI in this study, the Sponsor was to be informed immediately (i.e., within 24 hours), as per SAE notification guidelines, even if a seriousness criterion was not met, using the corresponding screens in the eCRF. • ALT increased >3×ULN. • QT prolongation (QTcF≥500 milli seconds [ms]) and/or a delta QTc change from baseline>60 ms (12-lead ECG). In the event of prolongation of QTc interval (automatic measurement)≥500 ms, confirmed by a manual reading by the Investigator or a physician delegated by the Investigator using the Fridericia formula for correcting QT, the participant was placed under supervision in a specialized setting. Investigational medicinal product administration was stopped, and appropriate blood samples collected. Subsequent ECG monitoring of the participant was then performed on a regular and clinically responsible basis until the QTc interval returned to a safe value as determined by the Investigator in agreement with the Sponsor. • Photosensitivity (Grade 2 and above AE due to sun exposure). • Pregnancy. • Symptomatic overdose. • An overdose (accidental or intentional) with the IMP is an event suspected by the Investigator or spontaneously notified by the participant (not based on systematic pills count) and defined as at least twice the intended dose within the intended therapeutic interval, adjusted according to the tested drug.

## CN1C(=O)c2cccc(OC(F)F)c2[C@H]2C[C@@H]1c1nc3ccc(-c4cnc(C5(N)CCC5)nc4)cc3n12 [Compound 1, (7R,14R)-11-[2-(1-aminocyclobutyl)pyrimidin-5-yl]-1-(difluoromethoxy)-6-methyl-6,7-dihydro-7,14-methanobenzimidazo[1,2-b][2,5]benzodiazocin-5(14H)-one]
[1]; PASI < 10 (mild) population, week 2, N = 16, SEM 3.61
  Mean (±SEM) % improvement from baseline in TLS score: 20.9%
[1]; PASI < 10 (mild) population, week 4, N = 15, SEM 6.32
  Mean (±SEM) % improvement from baseline in TLS score: 37.0%
[1]; PASI ≥ 10 (moderate) population, week 2, N = 9
  Mean (±SEM) % improvement from baseline in TLS score: 10.9% and 10.9 (6.20) %
[1]; PASI ≥ 10 (moderate) population, week 4, N = 9
  Mean (±SEM) % improvement from baseline in TLS score: 39.7% and 39.7 (4.03) %
[1]; week 2, vs placebo 6.29%, p=0.032
  LSm (±SE) % improvement from baseline in TLS score: 17.06% and 17.06 (3.13) %
[1]; week 2, 90% CI 1.29 to 20.26
  ΔLSm (±SE) (Compound 1 minus placebo) in % improvement from baseline in TLS score: 10.77% and 10.77 (5.61) %
[1]; week 4, vs placebo 20.44%, p=0.012
  LSm (±SE) % improvement from baseline in TLS score: 38.18% and 38.18 (4.33) %
[1]; week 4, 90% CI 4.98 to 30.49
  ΔLSm (±SE) (Compound 1 minus placebo) in % improvement from baseline in TLS score: 17.7% and 17.74% and 17.74 (7.54) %
[1]; week 4, FIG. 1, placebo around 1.25 points
  mean reduction in TLS score from baseline: around 2.5 points
[2]; 200 mg BID
  QTcF change from baseline >60 msec and/or QTcF>480 msec: no QTcF change from baseline >60 msec and/or QTcF>480 msec
[2]; 200 mg BID, Day 8, baseline 426 msec
  QTcF change from baseline, one participant: 33 ms
[2]; 200 mg BID, one single occasion on Day 8
  Number of participants with QTcF>450 msec: One
[2]; 200 mg BID, one single occasion on Day 8, baseline 426 msec
  QTcF, one participant: 459 ms
[2]; 4-week clinical trial
  risk of QTc prolongation / impact on cardiac parameters (in words): No indication for risks on QTc prolongation was observed; also recorded: neither was any significant impact on cardiac parameters (e.g., QTcF interval)
